Measured values taken from BigSolDB 2.1.

OCCOc1ccc2ccccc2c1-c1c(OCCO)ccc2ccccc12
solubility (mole fraction)
Conditions | 283.15 K | 288.15 K | 293.15 K | 298.15 K | 303.15 K | 308.15 K | 313.15 K | 318.15 K | 323.15 K
in acetone | 0.00658 | 0.00893 | 0.0121 | 0.0153 | 0.0212 | 0.027 | 0.0352 | 0.0441 | 0.0567
in ethyl acetate | 0.00227 | 0.00328 | 0.00464 | 0.00604 | 0.00802 | 0.0104 | 0.0133 | 0.0174 | 0.0229
in ethyl formate | 0.00207 | 0.00284 | 0.00399 | 0.00539 | 0.00721 | 0.00964 | 0.0123 | 0.0161 | 0.0209
in isobutanol | 0.000512 | 0.000733 | 0.00108 | 0.00147 | 0.00209 | 0.00291 | 0.00388 | 0.005 | 0.00655
in isobutyl acetate | 0.00105 | 0.00158 | 0.0022 | 0.00296 | 0.00396 | 0.00518 | 0.00692 | 0.00911 | 0.0117
in isopropanol | 0.000762 | 0.00102 | 0.00132 | 0.00187 | 0.00263 | 0.00351 | 0.00487 | 0.00649 | 0.00847
in methyl acetate | 0.00297 | 0.00423 | 0.00595 | 0.00778 | 0.0102 | 0.0137 | 0.0173 | 0.0218 | 0.0292
in n-butanol | 0.000873 | 0.00119 | 0.00168 | 0.00242 | 0.00317 | 0.00428 | 0.0058 | 0.00782 | 0.0109
in n-butyl acetate | 0.00136 | 0.00186 | 0.00286 | 0.00389 | 0.00486 | 0.00646 | 0.0086 | 0.0108 | 0.0144
in n-pentanol | 0.000827 | 0.00116 | 0.00163 | 0.00227 | 0.00303 | 0.00413 | 0.00551 | 0.00725 | 0.00966
in n-propanol | 0.00111 | 0.00143 | 0.00189 | 0.00268 | 0.00369 | 0.00494 | 0.00644 | 0.00847 | 0.012
in toluene | 0.000885 | 0.00122 | 0.00176 | 0.0025 | 0.00331 | 0.00447 | 0.00595 | 0.00794 | 0.0104
